Laboratory results reported in ChEMBL document CHEMBL4507327 (2021).

Key:
[1] = target: Casein kinase I isoform gamma-2 (Homo sapiens, UniProt P78368); experiment: CK1gamma2(C1G2LGI1) Takeda global kinase panel
[2] = target: Serine/threonine-protein kinase DCLK3 (Homo sapiens, UniProt Q9C098); experiment: DCAMKL3(DCL3LGP1) Takeda global kinase panel
[3] = target: Insulin receptor-related protein (Homo sapiens, UniProt P14616); experiment: IRR(INSSLGF1) Takeda global kinase panel
[4] = target: Tyrosine-protein kinase receptor UFO (Homo sapiens, UniProt P30530); experiment: Axl(AXL1LGY1) Takeda global kinase panel
[5] = target: Rhodopsin kinase GRK1 (Homo sapiens, UniProt Q15835); experiment: RHODK [GRK1(GRK1LGA1)] Takeda global kinase panel
[6] = target: Mitogen-activated protein kinase kinase kinase 9 (Homo sapiens, UniProt P80192); experiment: MLK1(M3K9LGF1) Takeda global kinase panel
[7] = target: Serine/threonine-protein kinase 4 (Homo sapiens, UniProt Q13043); experiment: MST1(STK4LGF1) Takeda global kinase panel
[8] = target: Tyrosine-protein kinase SYK (Homo sapiens, UniProt P43405); experiment: Syk(SYK1LHY1) Takeda global kinase panel
[9] = target: Myosin light chain kinase, smooth muscle (Homo sapiens, UniProt Q15746); experiment: smMLCK(MYL1LGF1) Takeda global kinase panel
[10] = target: STE20-related kinase adapter protein alpha (Homo sapiens, UniProt Q7RTN6); experiment: STLK5(STRAPHD1) Takeda global kinase panel
[11] = target: Cyclin-dependent kinase 3 (Homo sapiens, UniProt Q00526); experiment: CDK3(CDK3CGS1) Takeda global kinase panel
[12] = target: Estrogen receptor (Homo sapiens) (UniProt P03372); conditions: Compound concentration 10.0 uM
[13] = target: Receptor-type tyrosine-protein kinase FLT3 (Homo sapiens, UniProt P36888); experiment: FLT3(FLT3MGE1) Takeda global kinase panel
[14] = target: Ankyrin repeat and protein kinase domain-containing protein 1 (Homo sapiens, UniProt Q8NFD2); experiment: SgK288(ANK1LGRL) Takeda global kinase panel
[15] = target: Serine/threonine-protein kinase greatwall (Homo sapiens, UniProt Q96GX5); experiment: MASTL(MASLLGE1) Takeda global kinase panel
[16] = target: Mitogen-activated protein kinase 13 (Homo sapiens, UniProt O15264); experiment: p38delta(MP13LGP1) Takeda global kinase panel
[17] = target: Serine/threonine-protein kinase ICK (Homo sapiens, UniProt Q9UPZ9); experiment: ICK(ICK1LGP1) Takeda global kinase panel
[18] = target: Eukaryotic translation initiation factor 2-alpha kinase 1 (Homo sapiens, UniProt Q9BQI3); experiment: HRI(EIK1CGQ1) Takeda global kinase panel
[19] = target: Interleukin-1 receptor-associated kinase 3 (Homo sapiens, UniProt Q9Y616); experiment: IRAK3(IRK3PFE1) Takeda global kinase panel
[20] = target: Casein kinase II subunit alpha (Homo sapiens, UniProt P68400); experiment: CK2alpha1(C2A1LGF1) Takeda global kinase panel
[21] = target: Tyrosine-protein kinase Lck (Homo sapiens, UniProt P06239); experiment: Lck(LCK1LGF1) Takeda global kinase panel
[22] = target: Cyclin-dependent kinase 13 (Homo sapiens, UniProt Q14004); experiment: CHED(CD13PHS1) Takeda global kinase panel
[23] = target: Glutamate NMDA receptor (Rattus norvegicus) (UniProt P35439+Q00959+Q00960+Q00961+Q62645+Q8VHN2+Q9R1M7); conditions: Compound concentration 10.0 uM
[24] = target: Dual specificity protein kinase CLK1 (Homo sapiens, UniProt P49759); experiment: CLK1(CLK1LGF1) Takeda global kinase panel
[25] = target: Serine/threonine-protein kinase PAK 5 (Homo sapiens, UniProt Q9P286); experiment: PAK5(PAK7LGF1) Takeda global kinase panel
[26] = organism: Rattus norvegicus; experiment: Inhibition of Thyroid Hormone at 10 µM in the Eurofins-Panlabs radioligand binding assay (Eurofins_assay_285900); type: protein assay; conditions: Compound concentration 10.0 uM
[27] = target: Wee1-like protein kinase (Homo sapiens, UniProt P30291); experiment: Wee1(WEE1LGF1) Takeda global kinase panel
[28] = target: Cyclin-dependent kinase 6 (Homo sapiens, UniProt Q00534); experiment: CDK6(CDK6CGS1) Takeda global kinase panel
[29] = target: LIM domain kinase 2 (Homo sapiens, UniProt P53671); experiment: LIMK2(LIM2LGV1) Takeda global kinase panel
[30] = target: Delta-type opioid receptor (Homo sapiens) (UniProt P41143); conditions: Compound concentration 10.0 uM
[31] = target: Ribosomal protein S6 kinase alpha-4 (Homo sapiens, UniProt O75676); experiment: MSK2(R6A4LGRJ) Takeda global kinase panel
[32] = target: Insulin receptor (Homo sapiens, UniProt P06213); experiment: InSR(INSRLGY1) Takeda global kinase panel
[33] = target: Non-receptor tyrosine-protein kinase TYK2 (Homo sapiens, UniProt P29597); experiment: Tyk2(TYK2LGF1) Takeda global kinase panel
[34] = target: Phosphatidylinositol 4,5-bisphosphate 3-kinase catalytic subunit delta isoform (Homo sapiens, UniProt O00329); experiment: PI3KCD(PI3DCGRK) Takeda global kinase panel
[35] = target: Casein kinase I isoform alpha-like (Homo sapiens, UniProt Q8N752); experiment: CK1alpha2(C1ALLGI5) Takeda global kinase panel
[36] = target: Tyrosine-protein kinase Fer (Homo sapiens, UniProt P16591); experiment: Fer(FER1LGY1) Takeda global kinase panel
[37] = target: Mitogen-activated protein kinase kinase kinase 14 (Homo sapiens, UniProt Q99558); experiment: NIK(M314LGP1) Takeda global kinase panel
[38] = target: Death-associated protein kinase 3 (Homo sapiens, UniProt O43293); experiment: DAPK3(DAP3LGP1) Takeda global kinase panel
[39] = target: Insulin-like growth factor 1 receptor (Homo sapiens, UniProt P08069); experiment: IGF1R(IGF1LGF1) Takeda global kinase panel
[40] = target: Serine/threonine-protein kinase pim-2 (Homo sapiens, UniProt Q9P1W9); experiment: Pim2(PIM2LHY1) Takeda global kinase panel
[41] = target: Serine/threonine-protein kinase PAK 6 (Homo sapiens, UniProt Q9NQU5); experiment: PAK6(PAK6CGY1) Takeda global kinase panel
[42] = target: Cyclin-dependent kinase 11A (Homo sapiens, UniProt Q9UQ88); experiment: CDK11A(C11ALGS1) Takeda global kinase panel
[43] = target: Mitogen-activated protein kinase 9 (Homo sapiens, UniProt P45984); experiment: JNK2(MAP9LGF1) Takeda global kinase panel
[44] = target: Adenosine receptor A1 (Homo sapiens) (UniProt P30542); conditions: Compound concentration 10.0 uM
[45] = target: Serine/threonine-protein kinase PLK3 (Homo sapiens, UniProt Q9H4B4); experiment: PLK3(PLK3PHY1) Takeda global kinase panel
[46] = target: Tyrosine-protein kinase ABL2 (Homo sapiens, UniProt P42684); experiment: Arg(ABL2LGF1) Takeda global kinase panel

Chain of Phosphatidylinositol 4,5-bisphosphate 3-kinase catalytic subunit delta isoform (O00329 whole entry, canonical isoform): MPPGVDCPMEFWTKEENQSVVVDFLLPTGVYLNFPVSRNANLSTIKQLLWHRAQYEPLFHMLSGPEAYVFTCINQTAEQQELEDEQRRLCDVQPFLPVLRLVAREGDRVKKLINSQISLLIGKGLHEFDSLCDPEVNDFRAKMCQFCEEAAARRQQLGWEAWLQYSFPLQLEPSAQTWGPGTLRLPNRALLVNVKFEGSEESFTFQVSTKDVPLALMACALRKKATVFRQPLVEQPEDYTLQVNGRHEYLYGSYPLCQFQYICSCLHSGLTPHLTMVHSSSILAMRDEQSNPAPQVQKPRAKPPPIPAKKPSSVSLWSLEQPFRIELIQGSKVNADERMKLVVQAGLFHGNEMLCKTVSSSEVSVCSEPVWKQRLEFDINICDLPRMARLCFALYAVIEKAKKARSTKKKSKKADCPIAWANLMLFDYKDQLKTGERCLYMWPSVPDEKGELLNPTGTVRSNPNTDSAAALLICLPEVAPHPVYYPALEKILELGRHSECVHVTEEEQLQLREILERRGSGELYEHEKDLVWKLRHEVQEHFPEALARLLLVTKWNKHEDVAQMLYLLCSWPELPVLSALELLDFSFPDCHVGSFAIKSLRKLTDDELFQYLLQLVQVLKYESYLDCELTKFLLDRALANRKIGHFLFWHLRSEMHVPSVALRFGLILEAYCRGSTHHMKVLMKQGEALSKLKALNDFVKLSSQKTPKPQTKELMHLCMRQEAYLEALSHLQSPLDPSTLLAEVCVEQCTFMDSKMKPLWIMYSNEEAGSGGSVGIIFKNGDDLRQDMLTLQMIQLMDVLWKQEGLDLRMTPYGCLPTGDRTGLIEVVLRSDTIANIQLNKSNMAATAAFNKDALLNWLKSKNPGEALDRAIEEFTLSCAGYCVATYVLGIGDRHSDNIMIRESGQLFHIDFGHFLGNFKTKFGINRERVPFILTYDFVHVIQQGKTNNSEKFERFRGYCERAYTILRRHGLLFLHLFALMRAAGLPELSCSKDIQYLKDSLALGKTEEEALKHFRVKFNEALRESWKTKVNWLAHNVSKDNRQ
Chain of STE20-related kinase adapter protein alpha (Q7RTN6 whole entry): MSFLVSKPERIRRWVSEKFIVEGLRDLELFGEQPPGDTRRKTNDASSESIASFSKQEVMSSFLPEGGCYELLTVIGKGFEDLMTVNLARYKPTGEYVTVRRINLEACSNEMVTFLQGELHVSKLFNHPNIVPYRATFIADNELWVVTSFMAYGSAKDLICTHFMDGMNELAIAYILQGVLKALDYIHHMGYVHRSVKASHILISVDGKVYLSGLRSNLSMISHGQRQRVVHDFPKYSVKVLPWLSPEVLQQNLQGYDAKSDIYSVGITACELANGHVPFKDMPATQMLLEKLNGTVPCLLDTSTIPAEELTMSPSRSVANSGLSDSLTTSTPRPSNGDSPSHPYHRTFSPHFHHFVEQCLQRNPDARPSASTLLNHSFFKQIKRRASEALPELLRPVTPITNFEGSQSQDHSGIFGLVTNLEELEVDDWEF
Chain of Serine/threonine-protein kinase ICK (Q9UPZ9 whole entry): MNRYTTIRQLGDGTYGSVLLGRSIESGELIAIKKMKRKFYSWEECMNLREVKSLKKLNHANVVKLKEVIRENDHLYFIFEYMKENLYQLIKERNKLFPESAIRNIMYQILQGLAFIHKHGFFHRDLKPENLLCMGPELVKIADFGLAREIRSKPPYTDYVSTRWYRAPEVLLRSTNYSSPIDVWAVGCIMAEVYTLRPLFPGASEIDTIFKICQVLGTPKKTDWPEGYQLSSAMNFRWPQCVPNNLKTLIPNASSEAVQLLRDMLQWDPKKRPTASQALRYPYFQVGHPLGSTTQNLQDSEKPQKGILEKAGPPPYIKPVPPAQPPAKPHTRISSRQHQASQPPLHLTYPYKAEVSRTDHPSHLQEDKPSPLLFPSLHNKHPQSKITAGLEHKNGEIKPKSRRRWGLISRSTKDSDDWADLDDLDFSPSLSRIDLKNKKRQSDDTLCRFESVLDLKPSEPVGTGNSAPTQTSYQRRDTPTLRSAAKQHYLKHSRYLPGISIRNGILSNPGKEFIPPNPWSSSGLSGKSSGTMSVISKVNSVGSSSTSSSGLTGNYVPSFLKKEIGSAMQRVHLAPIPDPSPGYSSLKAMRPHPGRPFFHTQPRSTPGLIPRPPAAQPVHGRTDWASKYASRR
Chain of Ribosomal protein S6 kinase alpha-4 (O75676 whole entry): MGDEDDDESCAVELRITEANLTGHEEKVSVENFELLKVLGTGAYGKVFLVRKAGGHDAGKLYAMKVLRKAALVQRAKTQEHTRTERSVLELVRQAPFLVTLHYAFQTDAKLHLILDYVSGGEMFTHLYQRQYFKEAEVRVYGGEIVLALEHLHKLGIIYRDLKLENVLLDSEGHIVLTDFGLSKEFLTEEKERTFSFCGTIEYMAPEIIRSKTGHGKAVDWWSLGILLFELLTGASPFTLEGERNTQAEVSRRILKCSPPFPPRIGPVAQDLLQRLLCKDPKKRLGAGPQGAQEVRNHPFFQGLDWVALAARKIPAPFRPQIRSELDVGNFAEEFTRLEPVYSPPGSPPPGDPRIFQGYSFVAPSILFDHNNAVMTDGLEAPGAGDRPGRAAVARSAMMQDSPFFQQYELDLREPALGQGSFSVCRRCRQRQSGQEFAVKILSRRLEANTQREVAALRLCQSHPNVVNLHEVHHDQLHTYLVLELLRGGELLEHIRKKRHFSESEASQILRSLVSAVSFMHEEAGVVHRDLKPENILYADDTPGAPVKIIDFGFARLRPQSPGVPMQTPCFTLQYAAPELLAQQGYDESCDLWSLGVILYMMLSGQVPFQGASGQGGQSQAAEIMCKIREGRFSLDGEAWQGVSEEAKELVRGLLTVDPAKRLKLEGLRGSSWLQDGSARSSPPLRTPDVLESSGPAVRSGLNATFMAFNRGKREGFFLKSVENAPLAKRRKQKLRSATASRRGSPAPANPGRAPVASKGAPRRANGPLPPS
Chain of Insulin receptor-related protein (P14616 27-742 limits assumed): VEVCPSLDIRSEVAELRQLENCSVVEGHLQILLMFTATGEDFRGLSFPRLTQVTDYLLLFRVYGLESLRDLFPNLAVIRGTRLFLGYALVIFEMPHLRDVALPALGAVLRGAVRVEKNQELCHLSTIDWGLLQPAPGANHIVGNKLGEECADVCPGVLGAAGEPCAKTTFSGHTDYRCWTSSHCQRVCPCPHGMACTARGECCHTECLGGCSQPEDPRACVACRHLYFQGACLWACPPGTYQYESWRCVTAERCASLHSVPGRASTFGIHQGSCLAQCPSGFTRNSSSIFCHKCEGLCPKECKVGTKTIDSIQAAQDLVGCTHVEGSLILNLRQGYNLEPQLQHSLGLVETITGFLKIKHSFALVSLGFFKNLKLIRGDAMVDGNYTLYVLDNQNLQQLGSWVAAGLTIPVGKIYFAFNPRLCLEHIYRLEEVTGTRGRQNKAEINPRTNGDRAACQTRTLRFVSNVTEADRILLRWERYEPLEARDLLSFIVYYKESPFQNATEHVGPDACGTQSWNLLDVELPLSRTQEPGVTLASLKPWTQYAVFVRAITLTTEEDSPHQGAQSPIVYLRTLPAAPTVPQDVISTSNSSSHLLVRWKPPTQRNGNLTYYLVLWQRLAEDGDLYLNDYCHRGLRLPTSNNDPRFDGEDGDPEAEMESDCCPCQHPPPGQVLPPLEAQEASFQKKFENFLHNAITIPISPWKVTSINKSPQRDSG
Chain of Insulin receptor-related protein (P14616 747-1297 limits assumed): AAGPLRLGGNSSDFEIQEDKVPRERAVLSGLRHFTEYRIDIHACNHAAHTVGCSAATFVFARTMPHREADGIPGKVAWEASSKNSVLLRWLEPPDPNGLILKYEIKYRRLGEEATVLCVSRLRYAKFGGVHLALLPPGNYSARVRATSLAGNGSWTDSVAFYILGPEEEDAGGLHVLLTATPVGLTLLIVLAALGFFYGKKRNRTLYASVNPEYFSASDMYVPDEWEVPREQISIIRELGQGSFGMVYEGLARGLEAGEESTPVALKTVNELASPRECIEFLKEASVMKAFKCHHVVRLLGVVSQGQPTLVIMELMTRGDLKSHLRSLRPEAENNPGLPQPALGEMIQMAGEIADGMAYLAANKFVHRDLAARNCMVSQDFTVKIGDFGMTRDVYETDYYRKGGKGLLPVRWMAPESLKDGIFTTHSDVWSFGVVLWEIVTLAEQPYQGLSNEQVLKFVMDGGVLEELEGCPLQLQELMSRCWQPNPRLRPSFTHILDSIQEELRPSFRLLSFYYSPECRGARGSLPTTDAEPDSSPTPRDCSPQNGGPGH
Chain of Serine/threonine-protein kinase DCLK3 (Q9C098 whole entry): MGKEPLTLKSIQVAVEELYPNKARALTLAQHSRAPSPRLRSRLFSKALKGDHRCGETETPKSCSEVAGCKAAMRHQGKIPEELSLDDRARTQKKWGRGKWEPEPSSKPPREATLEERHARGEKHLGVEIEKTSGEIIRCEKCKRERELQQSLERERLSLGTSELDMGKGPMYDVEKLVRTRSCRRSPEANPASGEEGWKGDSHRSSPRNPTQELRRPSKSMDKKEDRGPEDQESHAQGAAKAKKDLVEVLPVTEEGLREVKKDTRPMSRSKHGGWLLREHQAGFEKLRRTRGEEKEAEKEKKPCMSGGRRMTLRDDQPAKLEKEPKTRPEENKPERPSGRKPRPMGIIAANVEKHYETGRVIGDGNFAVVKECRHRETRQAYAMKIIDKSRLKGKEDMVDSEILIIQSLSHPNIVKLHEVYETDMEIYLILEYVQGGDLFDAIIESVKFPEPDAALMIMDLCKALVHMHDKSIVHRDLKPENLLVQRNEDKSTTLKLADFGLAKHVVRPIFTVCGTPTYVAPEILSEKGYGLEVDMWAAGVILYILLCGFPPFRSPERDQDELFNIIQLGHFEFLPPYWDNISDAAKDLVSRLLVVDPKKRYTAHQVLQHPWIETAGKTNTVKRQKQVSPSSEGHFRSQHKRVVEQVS

CN1C(=O)[C@@H](N2CCc3cn(Cc4ccccc4)nc3C2=O)COc2ccccc21 [TP-030-1]
IC50 [1]: 1000 nM | IC50 [2]: 1000 nM | IC50 [3]: 1000 nM | IC50 [4]: 1000 nM | IC50 [5]: 1000 nM | IC50 [6]: 1000 nM | IC50 [7]: 1000 nM | IC50 [8]: 1000 nM | IC50 [9]: 1000 nM | IC50 [10]: 1000 nM | IC50 [11]: 1000 nM | inhibition [12]: 36% | IC50 [13]: 1000 nM | IC50 [14]: 1000 nM | IC50 [15]: 1000 nM | IC50 [16]: 1000 nM | IC50 [17]: 1000 nM | IC50 [18]: 1000 nM | IC50 [19]: 1000 nM | IC50 [20]: 1000 nM | IC50 [21]: 1000 nM | IC50 [22]: 1000 nM | inhibition [23]: 0% | IC50 [24]: 1000 nM | IC50 [25]: 1000 nM | inhibition [26]: 24% | IC50 [27]: 1000 nM | IC50 [28]: 1000 nM | IC50 [29]: 1000 nM | inhibition [30]: 3% | IC50 [31]: 1000 nM | IC50 [32]: 1000 nM | IC50 [33]: 1000 nM | IC50 [34]: 1000 nM | IC50 [35]: 1000 nM | IC50 [36]: 1000 nM | IC50 [37]: 1000 nM | IC50 [38]: 1000 nM | IC50 [39]: 1000 nM | IC50 [40]: 1000 nM | IC50 [41]: 1000 nM | IC50 [42]: 1000 nM | IC50 [43]: 1000 nM | inhibition [44]: 7% | IC50 [45]: 1000 nM | IC50 [46]: 1000 nM

CN1C(=O)[C@@H](N2CCc3cn(CC4CCS(=O)(=O)CC4)nc3C2=O)COc2ccccc21 [TP-030n]
IC50 [1]: 1000 nM | IC50 [2]: 1000 nM | IC50 [3]: 1000 nM | IC50 [4]: 1000 nM | IC50 [5]: 1000 nM | IC50 [6]: 1000 nM | IC50 [7]: 1000 nM | IC50 [8]: 1000 nM | IC50 [9]: 1000 nM | IC50 [10]: 1000 nM | IC50 [11]: 1000 nM | inhibition [12]: 5% | IC50 [13]: 1000 nM | IC50 [14]: 1000 nM | IC50 [15]: 1000 nM | IC50 [16]: 1000 nM | IC50 [17]: 1000 nM | IC50 [18]: 1000 nM | IC50 [19]: 1000 nM | IC50 [20]: 1000 nM | IC50 [21]: 1000 nM | IC50 [22]: 1000 nM | inhibition [23]: -2% | IC50 [24]: 1000 nM | IC50 [25]: 1000 nM | inhibition [26]: 21% | IC50 [27]: 1000 nM | IC50 [28]: 1000 nM | IC50 [29]: 1000 nM | inhibition [30]: -8% | IC50 [31]: 1000 nM | IC50 [32]: 1000 nM | IC50 [33]: 1000 nM | IC50 [34]: 1000 nM | IC50 [35]: 1000 nM | IC50 [36]: 1000 nM | IC50 [37]: 1000 nM | IC50 [38]: 1000 nM | IC50 [39]: 1000 nM | IC50 [40]: 1000 nM | IC50 [41]: 1000 nM | IC50 [42]: 1000 nM | IC50 [43]: 1000 nM | inhibition [44]: -2% | IC50 [45]: 1000 nM | IC50 [46]: 1000 nM
